Tests used:
Cathepsin D = Cathepsin D (Homo sapiens, UniProt P07339); experiment: Inhibition of cathepsin-D (unknown origin) using C-terminal biotinylated peptide substrate treated 30 mins before addition of peptide substrate measured after 110 mins by fluorescence polarization assay
Beta-secretase 1 = Beta-secretase 1 (Homo sapiens, UniProt P56817); experiment: Inhibition of recombinant BACE-1 (unknown origin) expressed in Escherichia coli using biotinylated peptide substrate treated 20 mins before substrate addition measured after 3 hrs by fluorescence polarization assay
Sequence of Beta-secretase 1 (P56817 whole entry): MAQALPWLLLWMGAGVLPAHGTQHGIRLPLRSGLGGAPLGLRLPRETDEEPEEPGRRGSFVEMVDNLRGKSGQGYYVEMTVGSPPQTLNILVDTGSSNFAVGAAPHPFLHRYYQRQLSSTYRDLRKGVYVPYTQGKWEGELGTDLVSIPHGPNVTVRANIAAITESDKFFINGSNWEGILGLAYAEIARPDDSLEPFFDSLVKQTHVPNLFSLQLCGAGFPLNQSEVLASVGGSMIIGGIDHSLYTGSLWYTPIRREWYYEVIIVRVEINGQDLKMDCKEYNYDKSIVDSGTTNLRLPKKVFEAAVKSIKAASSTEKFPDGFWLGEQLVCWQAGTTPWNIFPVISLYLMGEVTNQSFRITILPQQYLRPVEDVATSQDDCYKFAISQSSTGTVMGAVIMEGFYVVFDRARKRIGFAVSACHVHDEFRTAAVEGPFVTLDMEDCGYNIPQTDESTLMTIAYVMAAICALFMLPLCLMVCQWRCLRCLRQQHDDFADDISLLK

[1] = Apparent permeability of the compound from apical to basolateral side of MDCK2 cells at 5 uM after 120 mins by LC/MS/MS analysis; assay type: ADME, cell-based, Canis lupus familiaris, MDCK-II; settings: dog, MDCK
[2] = Lipophilicity, log P of the compound; assay type: physicochemical; settings: octanol/water
[3] = Dissociation constant, pKa of the compound; assay type: physicochemical

Sequence of Cathepsin D (P07339 65-162 limits assumed): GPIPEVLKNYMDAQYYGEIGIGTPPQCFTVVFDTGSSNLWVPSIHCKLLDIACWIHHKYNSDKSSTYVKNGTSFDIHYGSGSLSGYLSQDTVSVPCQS
Sequence of Cathepsin D (P07339 169-412 limits assumed): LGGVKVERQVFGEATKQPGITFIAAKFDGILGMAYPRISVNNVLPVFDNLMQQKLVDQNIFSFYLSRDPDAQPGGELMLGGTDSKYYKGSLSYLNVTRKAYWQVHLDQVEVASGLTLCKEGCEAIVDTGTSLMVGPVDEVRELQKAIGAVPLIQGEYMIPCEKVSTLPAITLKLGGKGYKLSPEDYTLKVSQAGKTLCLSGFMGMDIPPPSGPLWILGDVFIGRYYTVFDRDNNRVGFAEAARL

Row | SMILES | IC50 (Cathepsin D) [nM] | IC50 (Beta-secretase 1) [nM] | Papp A→B at 2 h, 5 µM [1] [×10⁻⁶ cm/s] | logP [2] | pKa [3]
1 | CC(=O)N[C@@H](Cc1cc(F)cc(F)c1)[C@H](O)CN[C@H]1CCN(C)c2ccc(CC(C)(C)C)cc21 | 68 | 643 | – | – | –
2 | CC(=O)N[C@@H](Cc1cc(F)cc(F)c1)[C@H](O)CN[C@H]1CCOc2ccc(CC(C)(C)C)cc21 | 12 | 46 | 3 | – | –
3 | CC(=O)N[C@@H](Cc1cc(F)cc(F)c1)[C@H](O)CN[C@H]1COCc2ccc(CC(C)(C)C)cc21 | – | 19700 | – | – | –
4 | CCc1ccc2c(c1)[C@@H](NC[C@@H](O)[C@H](Cc1cc(F)cc(F)c1)NC(C)=O)CS(=O)(=O)C2 | 2840 | 116 | 0.3 | 3.2 | 5.8
5 | CC(=O)N[C@@H](Cc1cc(F)cc(F)c1)[C@H](O)CN[C@H]1CS(=O)(=O)Cc2ccc(C(C)C)cc21 | 940 | 127 | – | – | –
6 | CC(=O)N[C@@H](Cc1cc(F)cc(F)c1)[C@H](O)CN[C@H]1CS(=O)(=O)Cc2ccc(CC(C)(C)C)cc21 | 362 | 42 | – | – | –
7 | CC(=O)N[C@@H](Cc1cc(F)cc(F)c1)[C@H](O)CN[C@H]1CCOc2ccc(CC(C)(C)F)cc21 | 80 | 148 | 8.3 | – | –
8 | CC(=O)N[C@@H](Cc1cc(F)cc(F)c1)[C@H](O)CN[C@H]1CCOc2ccc(CC(C)(F)F)cc21 | 144 | 186 | 14.6 | – | –
9 | CC(=O)N[C@@H](Cc1cc(F)cc(F)c1)[C@H](O)CN[C@H]1CCOc2ccc(CC(C)(C)C#N)cc21 | 70 | 60 | 6.4 | – | –
10 | CC(=O)N[C@@H](Cc1cc(F)cc(F)c1)[C@H](O)CN[C@H]1CCOc2ccc(CC(C)(C)C(F)F)cc21 | 478 | 1300 | – | – | –
11 | CC(=O)N[C@@H](Cc1cc(F)cc(F)c1)[C@H](O)CN[C@H]1CCOc2ccc(OC(C)C)cc21 | 429 | 414 | 11.2 | – | –
12 | CC(=O)N[C@@H](Cc1cc(F)cc(F)c1)[C@H](O)CN[C@H]1CCOc2ccc(OC3CCCC3)cc21 | 145 | 221 | – | – | –
13 | CC(=O)N[C@@H](Cc1cc(F)cc(F)c1)[C@H](O)CN[C@H]1CC(C)(C)Oc2ccc(CC(C)(C)C)cc21 | 18 | 8 | 0.3 | – | –
14 | CCC[C@@]1(C)C[C@H](NC[C@@H](O)[C@H](Cc2cc(F)cc(F)c2)NC(C)=O)c2cc(CC(C)(C)C)ccc2O1 | 1 | 6 | – | – | –
15 | CCC[C@]1(C)C[C@H](NC[C@@H](O)[C@H](Cc2cc(F)cc(F)c2)NC(C)=O)c2cc(CC(C)(C)C)ccc2O1 | 2 | 15 | – | – | –
16 | CC(=O)N[C@@H](Cc1cc(F)cc(F)c1)[C@H](O)CN[C@H]1CC2(COC2)Oc2ccc(CC(C)(C)C)cc21 | 22500 | 27100 | – | – | –
17 | CC(=O)N[C@@H](Cc1cc(F)cc(F)c1)[C@H](O)CN[C@H]1CC(C)(C)Oc2ccc(CC(C)(F)F)cc21 | 16 | 9 | 1.7 | – | –
18 | CC(=O)N[C@@H](Cc1cc(F)cc(F)c1)[C@H](O)CN[C@H]1CC(C)(C)Oc2ccc(CC(C)(C)C#N)cc21 | 8 | 6 | 2.5 | – | –
19 | CC(=O)N[C@@H](Cc1cc(F)cc(F)c1)[C@H](O)CN[C@H]1CC(C)(C)Oc2ccc(OC(F)(F)F)cc21 | 59 | 89 | 1.2 | – | –
20 | CC(=O)N[C@@H](Cc1cc(F)cc(F)c1)[C@H](O)CN[C@H]1CC(C)(C)Oc2ccc(OC(C)(C)C)cc21 | 374 | 690 | 1.1 | – | –
21 | CC(=O)N[C@@H](Cc1cc(F)cc(F)c1)[C@H](O)CN[C@H]1CCCc2ccc(CC(C)(C)C)cc21 | 8 | 45 | 0.3 | 4.9 | 8.9
22 | CC(=O)N[C@@H](Cc1cc(F)cc(F)c1)[C@H](O)CN[C@H]1CCCc2ccc(Cc3ccccc3)cc21 | 251 | 4700 | – | – | –
23 | CCc1ccc2c(c1)[C@@H](NC[C@@H](O)[C@H](Cc1cc(F)cc(F)c1)NC(C)=O)CCC2 | 126 | 538 | – | – | –
24 | CCCCc1ccc2c(c1)[C@@H](NC[C@@H](O)[C@H](Cc1cc(F)cc(F)c1)NC(C)=O)CCC2 | 77 | 574 | – | – | –
25 | CC(=O)N[C@@H](Cc1cc(F)cc(F)c1)[C@H](O)CN[C@H]1CCCc2ccc(CC(C)C)cc21 | – | 93 | – | – | –
26 | CC(=O)N[C@@H](Cc1cc(F)cc(F)c1)[C@H](O)CN[C@H]1CCCc2ccc(C(C)(C)C)cc21 | 74 | 378 | – | – | –
27 | CC(=O)N[C@@H](Cc1cc(F)cc(F)c1)[C@H](O)CN[C@H]1CCOc2ccc(OC3CCCO3)cc21 (mixture of isomers) | 286 | 1320 | 11 | – | –
28 | CC(=O)N[C@@H](Cc1cc(F)cc(F)c1)[C@H](O)CN[C@H]1CCOc2ccc(OC3CCOC3)cc21 (mixture of isomers) | 255 | 858 | 7.1 | – | –
29 | COC[C@@]1(C)C[C@H](NC[C@@H](O)[C@H](Cc2cc(F)cc(F)c2)NC(C)=O)c2cc(CC(C)(C)C)ccc2O1 (mixture of isomers) | 5 | 9 | – | – | –
30 | CC(=O)N[C@@H](Cc1cc(F)cc(F)c1)[C@H](O)CN[C@H]1CC2(CC2)Oc2ccc(CC(C)(C)C)cc21 (mixture of isomers) | 6 | 22 | – | – | –

Source: ChEMBL document CHEMBL2406984, “Design and synthesis of hydroxyethylamine (HEA) BACE-1 inhibitors: prime side chromane-containing inhibitors” (Bioorg Med Chem Lett, 2013)
